From the supplement of paper PMC3937590

What was measured:
Assay in all cases: -log10 GI50 (growth inhibition 50%) (-log10(M)); higher = more potent growth inhibition
[1] = tested on: ZR75B
Outline: (§1)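 Breast cancer cell lines were treated with each compound for 72 hours at nine doses in 1:5 serial dilution, in triplicate, and luminescence was read against a time-zero plate. A Gompertz curve was fitted to the dose-response data by nonlinear least squares to obtain GI50, the molar concentration giving the set level of growth inhibition, which is reported as its negative logarithm. The logarithm is base 10, and values equal to the top dose carry a < qualifier.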

[2] = tested on: SUM159PT
Outline: as §1

[3] = tested on: MCF7
Outline: as §1

[4] = tested on: ZR751
Outline: as §1

[5] = tested on: HS578T
Outline: as §1

[6] = tested on: AU565
Outline: as §1

[7] = tested on: HCC1806
Outline: as §1

[8] = tested on: MDAMB231
Outline: as §1

[9] = tested on: CAMA1
Outline: as §1

[10] = tested on: SUM52PE
Outline: as §1

[11] = tested on: SUM185PE
Outline: as §1

[12] = tested on: HCC1419
Outline: as §1

[13] = tested on: HCC1187
Outline: as §1

[14] = tested on: MDAMB361
Outline: as §1

[15] = tested on: MDAMB453
Outline: as §1

[16] = tested on: MCF10A
Outline: as §1

[17] = tested on: T47D_KBluc
Outline: as §1

[18] = tested on: 184B5
Outline: as §1

[19] = tested on: T47D
Outline: as §1

[20] = tested on: SKBR3
Outline: as §1

Structure (SMILES) | -log10 GI50 [1] | -log10 GI50 [2] | -log10 GI50 [3] | -log10 GI50 [4] | -log10 GI50 [5] | -log10 GI50 [6] | -log10 GI50 [7] | -log10 GI50 [8] | -log10 GI50 [9] | -log10 GI50 [10] | -log10 GI50 [11] | -log10 GI50 [12] | -log10 GI50 [13] | -log10 GI50 [14] | -log10 GI50 [15] | -log10 GI50 [16] | -log10 GI50 [17] | -log10 GI50 [18] | -log10 GI50 [19] | -log10 GI50 [20]
C[C@]12O[C@H](C[C@]1(O)CO)n1c3ccccc3c3c4c(c5c6ccccc6n2c5c31)CNC4=O [Lestaurtinib] | 6.34 | 6.55 | 5.84 | 5.75 | 5.99 | 6.07 | 6.79 | 6.14 | 5.42 | 6.87 | 7.2 | 5.94 | 6.13 | 6.45 | 6.19 | 6.26 | 5.17 | 6.49 | 5.25 | 6
NS(=O)(=O)OC[C@@H]1C[C@@H](n2ccc3c(N[C@H]4CCc5ccccc54)ncnc32)C[C@@H]1O [MLN4924] | 6.84 | 6.31 | 7.16 | 5.32 | 6.63 | 6.74 | 7.67 | 7.03 | 7.29 | 6.41 | 7.27 | 6.68 | 6.09 | 7.03 | 5.81 | 6.31 | 6.71 | 6.93 | 6.93 | 6.82
COC(=O)Nc1nc2cc(C(=O)c3ccccc3)ccc2[nH]1 [Mebendazole] | 6.81 | 6.69 | 6.22 | 6.62 | 6.46 | 6.96 | 6.5 | 6.46 | 6.33 | 6.85 | 6.3 | 4.72 | 5.4 | 6.24 | 6.75 | 5.5 | 4.58 | < 4.18 | 5.66 | 6.49
Cc1c(O)cccc1C(=O)N[C@@H](CSc1ccccc1)[C@H](O)CN1C[C@H]2CCCC[C@H]2C[C@H]1C(=O)NC(C)(C)C [Nelfinavir] | 5.13 | 4.76 | 4.8 | 4.94 | 5.07 | < 4.48 | 5.11 | 4.91 | 5.37 | 4.75 | 5.24 | 5.66 | 4.85 | 4.97 | 5.2 | 4.9 | < 4.48 | 5.33 | 4.88 | 5.09
COc1ccc(C2=N[C@@H](c3ccc(Cl)cc3)[C@@H](c3ccc(Cl)cc3)N2C(=O)N2CCNC(=O)C2)c(OC(C)C)c1 [Nutlin 3a] | 5.69 | 4.78 | 5.25 | 5.51 | < 4.18 | 4.79 | 4.32 | < 4.18 | 4.34 | 4.74 | 4.54 | < 4.18 | 4.78 | 4.18 | 4.25 | 5.21 | 4.5 | 5.3 | 4.51 | 4.33
O=C(/C=C/C#Cc1cccc(NS(=O)(=O)c2ccccc2)c1)NO [Oxamflatin] | 6.41 | 6.5 | 5.74 | 5.65 | 5.86 | 6.19 | 6.16 | 5.58 | 6.09 | 6.23 | 6.51 | 5.88 | 6.19 | 6.15 | 6.56 | 6.14 | 5.9 | 6.06 | 6.06 | 5.95
CC(=O)O[C@H]1C(=O)[C@@]2(C)[C@H]([C@H](OC(=O)c3ccccc3)[C@]3(O)C[C@H](OC(=O)[C@H](O)[C@@H](NC(=O)c4ccccc4)c4ccccc4)C(C)=C1C3(C)C)[C@]1(OC(C)=O)CO[C@@H]1C[C@@H]2O [Paclitaxel] | 7.38 | 8.24 | 7.79 | 7.76 | 8.38 | 8.14 | 8.11 | 8.37 | 7.95 | 8.2 | 6.64 | 7.04 | 8.05 | 7.79 | 7.99 | 8.03 | 7.84 | 7.74 | 8.02 | 7.94
Nc1nc2[nH]cc(CCc3ccc(C(=O)N[C@@H](CCC(=O)O)C(=O)O)cc3)c2c(=O)[nH]1 [Pemetrexed] | < 2.53 | < 2.53 | < 2.53 | 5.05 | 4.59 | < 2.53 | 6.05 | < 2.53 | 4.62 | < 2.53 | < 2.53 | < 2.53 | < 2.53 | 6.19 | < 2.53 | < 2.53 | < 2.53 | 6.44 | < 2.53 | 5.02
CC(C)[C@H](CO)Nc1nc(Nc2cccc(Cl)c2)c2ncn(C(C)C)c2n1 [Purvalanol A] | < 3.78 | < 3.78 | 4.29 | < 3.78 | < 3.78 | 4.39 | 4.14 | < 3.78 | 3.87 | 4.79 | 4.69 | < 3.78 | 4.63 | < 3.78 | < 3.78 | 4.29 | < 3.78 | 5.52 | < 3.78 | 4.19
O=S(=O)(CC1CS1)c1ccc(Oc2ccccc2)cc1 (stereo not given) [SB-3CT] | 4.62 | 4.85 | < 4 | < 3.78 | 4.42 | < 4 | < 4 | < 3.78 | < 4 | 4.33 | 4.75 | < 3.78 | 4.83 | < 3.78 | < 3.78 | 4.05 | < 3.78 | < 3.78 | < 4 | < 4
CNC(=O)c1cc(Oc2ccc(NC(=O)Nc3ccc(Cl)c(C(F)(F)F)c3)cc2)ccn1 [Sorafenib] | 3.16 | 4.66 | 4.19 | 4.43 | < 3 | 3.94 | 4.23 | 3.84 | 4.22 | 5.77 | 5.83 | 4 | 4.49 | 4.22 | 3.09 | 4.31 | 4.38 | 5.48 | 4.59 | 4.35
N#Cc1c(-c2ccccc2)cc(-c2cc(Br)ccc2O)[nH]c1=O [TCS PIM-11] | < 3.88 | 4.46 | < 3.88 | 4 | < 4.18 | < 4.18 | < 3.88 | < 3.88 | < 3.88 | 4.72 | 4.67 | 4.31 | 4.42 | < 3.88 | < 3.88 | 4.57 | < 3.88 | 5.61 | < 4.18 | < 3.88
CC(/C=C/C(=O)NO)=C\[C@@H](C)C(=O)c1ccc(N(C)C)cc1 [Trichostatin A] | 5.3 | 5.23 | 5.18 | 4.74 | 4.77 | 5.44 | 4.97 | 5.26 | 5.57 | 5.58 | 4.76 | 4.9 | 5.32 | 5.09 | 5.22 | 4.82 | 5.4 | 4.34 | 5.46 | 5.21
Cc1cc(Nc2cc(N3CCN(C)CC3)nc(Sc3ccc(NC(=O)C4CC4)cc3)n2)n[nH]1 [VX-680] | 6.79 | 6.47 | 5.08 | 5.29 | 6.57 | 5.66 | 4.76 | 4.95 | 4.53 | 6.42 | 5.62 | 4.81 | 6.89 | 5.1 | 5.03 | 6.04 | 4.49 | 5.74 | 5.03 | < 4.48
CCCC(CCC)C(=O)O [Valproic acid] | 2.71 | 2.91 | 2.64 | 2.78 | 2.32 | 2.85 | 2.58 | 2.16 | 2.79 | 2.91 | 2.84 | 2.93 | 2.78 | 2.82 | 3.15 | 2.97 | 2.76 | 3.07 | 2.53 | 3.04
O=C(CCCCCCC(=O)Nc1ccccc1)NO [Vorinostat] | 4.02 | 3.92 | 4.19 | 3.77 | 3.53 | 4.08 | 3.89 | 4.11 | 4.13 | 4.73 | 4.42 | 4.27 | 4.79 | 4.26 | 4.49 | 3.68 | 3.99 | 3.84 | 3.97 | 4.32
